In publication doi:10.1101/2020.06.11.145995v1 (biorxiv, 2020):
Read-outs that look alike come from different tables or passages of the source.

Assays:
Assay in all cases: biochemical
PIK3C2G = PIK3C2G (Homo sapiens, UniProt O75747)
RIOK3 = RIOK3 (Homo sapiens, UniProt O14730)
TRKC = TRKC (Homo sapiens, UniProt Q16288)
TYK2 = TYK2 (Homo sapiens, UniProt P29597)
NEK6 = NEK6 (Homo sapiens, UniProt Q9HC98)
PCTK2 = PCTK2 (Homo sapiens, UniProt Q00537)
PIK3CA(I800L) = PIK3CA(I800L) (Homo sapiens, UniProt P42336, I800L)
SRPK3 = SRPK3 (Homo sapiens, UniProt Q9UPE1)
p38-gamma = p38-gamma (Homo sapiens, UniProt P53778)
PIK3CA(E545A) = PIK3CA(E545A) (Homo sapiens, UniProt P42336, E545A)
PIK3CA(E545A), sequence (P42336 whole entry E545A): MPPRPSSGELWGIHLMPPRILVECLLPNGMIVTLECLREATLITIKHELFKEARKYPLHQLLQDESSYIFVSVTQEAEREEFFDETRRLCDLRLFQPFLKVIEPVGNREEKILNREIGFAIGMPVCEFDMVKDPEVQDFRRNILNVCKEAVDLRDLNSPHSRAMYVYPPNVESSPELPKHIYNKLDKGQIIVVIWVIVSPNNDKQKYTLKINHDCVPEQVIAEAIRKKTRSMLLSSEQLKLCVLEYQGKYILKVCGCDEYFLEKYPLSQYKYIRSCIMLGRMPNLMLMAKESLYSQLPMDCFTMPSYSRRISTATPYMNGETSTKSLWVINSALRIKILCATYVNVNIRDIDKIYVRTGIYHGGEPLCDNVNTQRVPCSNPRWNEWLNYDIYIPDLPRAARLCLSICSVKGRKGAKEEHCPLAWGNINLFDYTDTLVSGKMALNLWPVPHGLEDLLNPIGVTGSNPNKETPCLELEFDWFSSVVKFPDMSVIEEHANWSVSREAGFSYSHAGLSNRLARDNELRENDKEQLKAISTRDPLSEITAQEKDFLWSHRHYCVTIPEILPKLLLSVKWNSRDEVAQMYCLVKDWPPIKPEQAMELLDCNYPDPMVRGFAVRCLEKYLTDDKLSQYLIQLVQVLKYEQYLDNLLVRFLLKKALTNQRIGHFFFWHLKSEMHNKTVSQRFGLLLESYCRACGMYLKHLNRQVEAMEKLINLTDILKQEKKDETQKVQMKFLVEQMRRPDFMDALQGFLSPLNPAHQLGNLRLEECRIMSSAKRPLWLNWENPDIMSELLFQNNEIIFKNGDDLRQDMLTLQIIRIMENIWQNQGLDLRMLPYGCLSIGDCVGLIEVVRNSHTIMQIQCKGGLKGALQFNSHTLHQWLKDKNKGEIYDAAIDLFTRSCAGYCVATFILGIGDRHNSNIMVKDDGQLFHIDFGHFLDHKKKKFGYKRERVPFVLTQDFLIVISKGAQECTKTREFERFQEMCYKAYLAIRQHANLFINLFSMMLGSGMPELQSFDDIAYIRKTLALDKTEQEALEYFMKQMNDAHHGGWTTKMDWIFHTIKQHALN

RSK4 = RSK4 (Homo sapiens, UniProt Q9UK32)
RSK4, sequence (Q9UK32 whole entry): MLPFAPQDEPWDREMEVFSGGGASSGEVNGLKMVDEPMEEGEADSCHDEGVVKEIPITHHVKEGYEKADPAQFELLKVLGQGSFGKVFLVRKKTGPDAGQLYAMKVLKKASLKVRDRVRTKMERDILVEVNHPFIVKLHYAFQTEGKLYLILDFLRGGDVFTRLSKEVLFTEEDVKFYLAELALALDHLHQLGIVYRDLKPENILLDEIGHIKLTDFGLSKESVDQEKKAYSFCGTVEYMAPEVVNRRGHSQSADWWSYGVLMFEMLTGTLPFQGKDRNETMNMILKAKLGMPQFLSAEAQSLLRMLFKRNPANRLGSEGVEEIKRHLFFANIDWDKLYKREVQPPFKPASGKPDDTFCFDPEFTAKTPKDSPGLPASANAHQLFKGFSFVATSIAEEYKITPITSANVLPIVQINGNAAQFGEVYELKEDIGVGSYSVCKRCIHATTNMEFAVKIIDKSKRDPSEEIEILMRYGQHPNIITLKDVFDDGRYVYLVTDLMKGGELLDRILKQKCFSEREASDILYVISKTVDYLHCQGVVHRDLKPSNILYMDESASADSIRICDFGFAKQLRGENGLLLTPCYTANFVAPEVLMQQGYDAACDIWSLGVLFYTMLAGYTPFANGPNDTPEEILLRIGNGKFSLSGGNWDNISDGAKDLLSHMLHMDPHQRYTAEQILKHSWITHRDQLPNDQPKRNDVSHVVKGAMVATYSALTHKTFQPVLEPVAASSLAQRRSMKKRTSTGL

TAOK1 = TAOK1 (Homo sapiens, UniProt Q7L7X3)
PLK2 = PLK2 (Homo sapiens, UniProt Q9NYY3)
ROCK2 = ROCK2 (Homo sapiens, UniProt O75116)
PDPK1 = PDPK1 (Homo sapiens, UniProt O15530)
VEGFR2 = VEGFR2 (Homo sapiens, UniProt P35968)
TNK1 = TNK1 (Homo sapiens, UniProt Q13470)
TAOK2 = TAOK2 (Homo sapiens, UniProt Q9UL54)
TAK1 = TAK1 (Homo sapiens, UniProt O43318)
RPS6KA5 = RPS6KA5 (Homo sapiens, UniProt O75582)
RPS6KA5, sequence (O75582 whole entry): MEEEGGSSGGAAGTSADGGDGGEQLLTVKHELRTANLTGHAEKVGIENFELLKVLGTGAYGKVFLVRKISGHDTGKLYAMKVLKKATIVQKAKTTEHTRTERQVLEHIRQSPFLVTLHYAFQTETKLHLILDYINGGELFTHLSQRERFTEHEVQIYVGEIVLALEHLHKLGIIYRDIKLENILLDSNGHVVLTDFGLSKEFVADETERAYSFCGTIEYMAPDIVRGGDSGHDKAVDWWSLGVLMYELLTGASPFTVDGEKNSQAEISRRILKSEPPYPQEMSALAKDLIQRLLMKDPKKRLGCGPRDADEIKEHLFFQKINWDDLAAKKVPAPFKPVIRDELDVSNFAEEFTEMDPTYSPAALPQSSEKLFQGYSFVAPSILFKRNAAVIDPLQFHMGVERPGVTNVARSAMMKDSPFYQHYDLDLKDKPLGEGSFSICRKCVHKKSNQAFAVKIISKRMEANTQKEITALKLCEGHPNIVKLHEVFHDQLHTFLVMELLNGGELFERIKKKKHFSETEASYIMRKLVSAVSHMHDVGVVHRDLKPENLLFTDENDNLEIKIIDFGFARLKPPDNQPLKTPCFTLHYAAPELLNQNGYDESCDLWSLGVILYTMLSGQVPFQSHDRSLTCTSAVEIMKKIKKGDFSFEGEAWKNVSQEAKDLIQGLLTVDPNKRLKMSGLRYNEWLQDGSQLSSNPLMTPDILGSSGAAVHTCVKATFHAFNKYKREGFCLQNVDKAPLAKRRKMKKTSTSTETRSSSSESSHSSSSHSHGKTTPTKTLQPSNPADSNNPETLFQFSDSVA

PFTK1 = PFTK1 (Homo sapiens, UniProt O94921)
SRPK1 = SRPK1 (Homo sapiens, UniProt Q96SB4)
PIK3CA = PIK3CA (Homo sapiens, UniProt P42336)
RIOK1 = RIOK1 (Homo sapiens, UniProt Q9BRS2)
RAF1 = RAF1 (Homo sapiens, UniProt P04049)
STK39 = STK39 (Homo sapiens, UniProt Q9UEW8)
PFTAIRE2 = PFTAIRE2 (Homo sapiens, UniProt Q96Q40)
PFTAIRE2, sequence (Q96Q40 whole entry): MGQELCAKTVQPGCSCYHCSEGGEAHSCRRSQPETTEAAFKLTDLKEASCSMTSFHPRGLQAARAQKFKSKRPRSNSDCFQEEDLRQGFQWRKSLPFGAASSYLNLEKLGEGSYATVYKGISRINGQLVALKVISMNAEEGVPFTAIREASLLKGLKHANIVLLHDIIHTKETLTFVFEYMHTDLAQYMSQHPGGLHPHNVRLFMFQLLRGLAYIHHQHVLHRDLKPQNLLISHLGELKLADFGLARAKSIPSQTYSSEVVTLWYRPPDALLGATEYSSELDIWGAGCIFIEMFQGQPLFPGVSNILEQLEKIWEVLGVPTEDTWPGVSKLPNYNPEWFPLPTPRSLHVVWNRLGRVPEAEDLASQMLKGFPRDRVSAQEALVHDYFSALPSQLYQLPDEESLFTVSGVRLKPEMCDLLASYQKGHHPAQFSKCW

TIE1 = TIE1 (Homo sapiens, UniProt P35590)
PAK3 = PAK3 (Homo sapiens, UniProt O75914)
[1] = read-out: CPT-1-70-1 (1μM) % control
[2] = read-out: CPT-1-70-1 (1μM) % control, Kin.Dom.1-N-terminal
[3] = read-out: HYJ-2-002-1 (1μM) % control
[4] = read-out: HYJ-2-002-1 (1μM) % control, Kin.Dom.1-N-terminal
[5] = read-out: HYJ-2-002-1 (1μM) % control, Kin.Dom.2-C-terminal

TYK2, sequence (P29597 whole entry): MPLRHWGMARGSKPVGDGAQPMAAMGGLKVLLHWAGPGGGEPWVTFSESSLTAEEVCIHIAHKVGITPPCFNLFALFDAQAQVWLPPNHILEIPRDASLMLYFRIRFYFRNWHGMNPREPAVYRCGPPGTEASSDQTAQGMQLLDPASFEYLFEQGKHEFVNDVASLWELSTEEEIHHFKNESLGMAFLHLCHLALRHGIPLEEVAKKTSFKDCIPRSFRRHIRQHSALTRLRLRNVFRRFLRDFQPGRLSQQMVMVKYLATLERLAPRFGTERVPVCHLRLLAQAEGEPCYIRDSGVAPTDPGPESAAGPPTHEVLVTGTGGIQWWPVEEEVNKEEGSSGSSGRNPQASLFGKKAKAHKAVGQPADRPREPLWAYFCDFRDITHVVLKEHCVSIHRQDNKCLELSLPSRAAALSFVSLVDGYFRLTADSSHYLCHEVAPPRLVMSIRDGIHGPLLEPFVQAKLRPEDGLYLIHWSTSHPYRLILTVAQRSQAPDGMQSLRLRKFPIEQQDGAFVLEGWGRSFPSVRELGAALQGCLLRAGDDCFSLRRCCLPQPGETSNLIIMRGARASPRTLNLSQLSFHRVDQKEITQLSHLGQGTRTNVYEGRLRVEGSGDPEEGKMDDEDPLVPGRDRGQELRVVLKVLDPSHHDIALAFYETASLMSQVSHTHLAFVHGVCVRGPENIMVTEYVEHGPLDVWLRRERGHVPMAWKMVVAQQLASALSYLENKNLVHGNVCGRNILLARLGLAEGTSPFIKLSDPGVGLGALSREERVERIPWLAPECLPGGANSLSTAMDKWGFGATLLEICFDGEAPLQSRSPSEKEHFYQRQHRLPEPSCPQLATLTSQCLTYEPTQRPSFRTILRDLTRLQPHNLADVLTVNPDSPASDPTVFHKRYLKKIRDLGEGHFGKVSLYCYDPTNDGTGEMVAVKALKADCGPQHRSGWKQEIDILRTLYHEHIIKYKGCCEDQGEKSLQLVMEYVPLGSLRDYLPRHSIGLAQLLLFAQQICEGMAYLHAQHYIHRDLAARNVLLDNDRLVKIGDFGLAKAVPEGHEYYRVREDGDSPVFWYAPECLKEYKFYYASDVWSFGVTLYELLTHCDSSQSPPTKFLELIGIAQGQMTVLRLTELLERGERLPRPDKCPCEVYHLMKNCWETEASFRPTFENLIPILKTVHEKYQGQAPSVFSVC
PCTK2, sequence (Q00537 whole entry): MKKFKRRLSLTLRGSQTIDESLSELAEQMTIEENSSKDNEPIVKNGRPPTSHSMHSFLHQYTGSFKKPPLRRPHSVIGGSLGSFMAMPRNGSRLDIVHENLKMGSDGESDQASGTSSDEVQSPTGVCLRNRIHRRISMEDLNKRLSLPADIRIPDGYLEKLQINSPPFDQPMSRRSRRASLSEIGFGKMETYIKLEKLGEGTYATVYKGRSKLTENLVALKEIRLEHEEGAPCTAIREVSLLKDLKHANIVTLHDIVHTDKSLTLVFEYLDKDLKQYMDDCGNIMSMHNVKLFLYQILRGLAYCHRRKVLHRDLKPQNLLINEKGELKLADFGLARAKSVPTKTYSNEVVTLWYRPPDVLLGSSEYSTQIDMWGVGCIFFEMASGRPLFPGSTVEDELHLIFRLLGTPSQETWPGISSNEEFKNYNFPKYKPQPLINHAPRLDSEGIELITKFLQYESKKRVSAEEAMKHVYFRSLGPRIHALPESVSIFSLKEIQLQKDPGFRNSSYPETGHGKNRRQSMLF
NEK6, sequence (Q9HC98 whole entry): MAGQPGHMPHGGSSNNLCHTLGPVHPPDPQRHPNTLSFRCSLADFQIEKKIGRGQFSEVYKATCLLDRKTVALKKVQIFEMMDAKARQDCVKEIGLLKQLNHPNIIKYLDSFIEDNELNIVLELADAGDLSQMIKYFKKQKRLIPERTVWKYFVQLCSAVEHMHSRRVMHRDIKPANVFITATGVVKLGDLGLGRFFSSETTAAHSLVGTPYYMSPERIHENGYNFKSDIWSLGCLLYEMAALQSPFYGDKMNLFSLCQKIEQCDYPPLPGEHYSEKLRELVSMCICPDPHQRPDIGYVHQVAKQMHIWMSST

CN1CCN(c2ccc(Nc3nc(Oc4ccc(NC(=O)CCl)cc4)c4cc[nH]c4n3)cc2)CC1 [CPT1-70-1]
remaining activity at 1 µM (PIK3C2G; [1]): 100%
remaining activity at 1 µM (RIOK3; [1]): 53%
remaining activity at 1 µM (TRKC; [1]): 61%
remaining activity at 1 µM (TYK2; read-out: CPT-1-70-1 (1μM) % control, JH1 domain-catalytic): 7.4%
remaining activity at 1 µM (TYK2; read-out: CPT-1-70-1 (1μM) % control, JH2 domain-pseudokinase): 68%
remaining activity at 1 µM (NEK6; [1]): 100%
remaining activity at 1 µM (PCTK2; [1]): 100%
remaining activity at 1 µM (PIK3CA(I800L); [1]): 100%
remaining activity at 1 µM (SRPK3; [1]): 100%
remaining activity at 1 µM (p38-gamma; [1]): 100%
remaining activity at 1 µM (PIK3CA(E545A); [1]): 79%
remaining activity at 1 µM (RSK4; [2]): 45%
remaining activity at 1 µM (RSK4; read-out: CPT-1-70-1 (1μM) % control, Kin.Dom.2-C-terminal): 100%
remaining activity at 1 µM (TAOK1; [1]): 96%
remaining activity at 1 µM (PLK2; [1]): 78%
remaining activity at 1 µM (ROCK2; [1]): 26%
remaining activity at 1 µM (PDPK1; [1]): 64%
remaining activity at 1 µM (VEGFR2; [1]): 40%
remaining activity at 1 µM (TNK1; [1]): 0.95%
remaining activity at 1 µM (TAOK2; [1]): 65%
remaining activity at 1 µM (TAK1; [1]): 3.6%
remaining activity at 1 µM (RPS6KA5; [2]): 100%
remaining activity at 1 µM (PFTK1; [1]): 100%
remaining activity at 1 µM (SRPK1; [1]): 44%
remaining activity at 1 µM (PIK3CA; [1]): 100%
remaining activity at 1 µM (RIOK1; [1]): 49%
remaining activity at 1 µM (RAF1; [1]): 86%
remaining activity at 1 µM (STK39; [1]): 85%
remaining activity at 1 µM (PFTAIRE2; [1]): 100%
remaining activity at 1 µM (TIE1; [1]): 39%
remaining activity at 1 µM (PAK3; [1]): 50%

CCN1CCN(Cc2ccc(NC(=O)c3ccc(C)c(CCc4cnc5[nH]ccc5c4OC)c3)cc2C(F)(F)F)CC1 [HYJ-2-002-1]
remaining activity at 1 µM (PIK3C2G; [3]): 100%
remaining activity at 1 µM (RIOK3; [3]): 100%
remaining activity at 1 µM (TRKC; [3]): 8%
remaining activity at 1 µM (TYK2; read-out: HYJ-2-002-1 (1μM) % control, JH1 domain-catalytic): 53%
remaining activity at 1 µM (TYK2; read-out: HYJ-2-002-1 (1μM) % control, JH2 domain-pseudokinase): 100%
remaining activity at 1 µM (NEK6; [3]): 100%
remaining activity at 1 µM (PCTK2; [3]): 100%
remaining activity at 1 µM (PIK3CA(I800L); [3]): 100%
remaining activity at 1 µM (SRPK3; [3]): 90%
remaining activity at 1 µM (p38-gamma; [3]): 54%
remaining activity at 1 µM (PIK3CA(E545A); [3]): 100%
remaining activity at 1 µM (RSK4; [4]): 100%
remaining activity at 1 µM (RSK4; [5]): 28%
remaining activity at 1 µM (TAOK1; [3]): 34%
remaining activity at 1 µM (PLK2; [3]): 100%
remaining activity at 1 µM (ROCK2; [3]): 94%
remaining activity at 1 µM (PDPK1; [3]): 72%
remaining activity at 1 µM (VEGFR2; [3]): 6.4%
remaining activity at 1 µM (TNK1; [3]): 15%
remaining activity at 1 µM (TAOK2; [3]): 18%
remaining activity at 1 µM (TAK1; [3]): 6.6%
remaining activity at 1 µM (RPS6KA5; [4]): 76%
remaining activity at 1 µM (RPS6KA5; [5]): 100%
remaining activity at 1 µM (PFTK1; [3]): 100%
remaining activity at 1 µM (SRPK1; [3]): 83%
remaining activity at 1 µM (PIK3CA; [3]): 100%
remaining activity at 1 µM (RIOK1; [3]): 100%
remaining activity at 1 µM (RAF1; [3]): 8.9%
remaining activity at 1 µM (STK39; [3]): 94%
remaining activity at 1 µM (PFTAIRE2; [3]): 94%
remaining activity at 1 µM (TIE1; [3]): 4.3%
remaining activity at 1 µM (PAK3; [3]): 100%
